Experimental data taken from publication PMC10258454 (Nature, 2021).

Experiments:
[1] = target: T1, AcbK (Actinoplanes sp. SE50/110, UniProt Q8RMD4); assay: X-ray crystallography, […] Å; assay type: binding; settings: ATP site; MnCl2, acarbose present
[2] = target: T1, AcbK; settings: 2 mM ATP as phosphate donor, MgCl2, pH 8, 37 °C
[3] = target: T2, porcine pancreatic amylase (PPA) (Sus scrofa, UniProt P00690); assay: colorimetric amylase assay, […] nm; assay type: biochemical; settings: 30 °C
T2 sequence (P00690 16-511): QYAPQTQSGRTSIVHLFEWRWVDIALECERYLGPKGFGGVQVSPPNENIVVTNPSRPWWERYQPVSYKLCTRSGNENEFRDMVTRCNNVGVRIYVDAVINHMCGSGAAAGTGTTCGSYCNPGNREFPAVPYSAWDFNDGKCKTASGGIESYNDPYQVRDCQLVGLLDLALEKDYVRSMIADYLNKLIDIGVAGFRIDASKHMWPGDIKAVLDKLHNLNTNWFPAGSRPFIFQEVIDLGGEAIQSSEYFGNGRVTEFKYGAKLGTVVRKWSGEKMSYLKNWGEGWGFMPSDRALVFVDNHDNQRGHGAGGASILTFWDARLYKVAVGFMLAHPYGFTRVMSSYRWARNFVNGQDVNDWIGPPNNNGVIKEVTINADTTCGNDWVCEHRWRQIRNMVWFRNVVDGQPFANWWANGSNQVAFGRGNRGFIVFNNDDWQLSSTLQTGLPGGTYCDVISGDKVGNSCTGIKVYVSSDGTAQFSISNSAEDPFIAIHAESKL

[4] = target: T3, human salivary amylase (HSA) (Homo sapiens, UniProt P0DUB6); assay: colorimetric amylase assay, […] nm; assay type: biochemical; settings: 30 °C
T3 sequence (P0DUB6 16-511): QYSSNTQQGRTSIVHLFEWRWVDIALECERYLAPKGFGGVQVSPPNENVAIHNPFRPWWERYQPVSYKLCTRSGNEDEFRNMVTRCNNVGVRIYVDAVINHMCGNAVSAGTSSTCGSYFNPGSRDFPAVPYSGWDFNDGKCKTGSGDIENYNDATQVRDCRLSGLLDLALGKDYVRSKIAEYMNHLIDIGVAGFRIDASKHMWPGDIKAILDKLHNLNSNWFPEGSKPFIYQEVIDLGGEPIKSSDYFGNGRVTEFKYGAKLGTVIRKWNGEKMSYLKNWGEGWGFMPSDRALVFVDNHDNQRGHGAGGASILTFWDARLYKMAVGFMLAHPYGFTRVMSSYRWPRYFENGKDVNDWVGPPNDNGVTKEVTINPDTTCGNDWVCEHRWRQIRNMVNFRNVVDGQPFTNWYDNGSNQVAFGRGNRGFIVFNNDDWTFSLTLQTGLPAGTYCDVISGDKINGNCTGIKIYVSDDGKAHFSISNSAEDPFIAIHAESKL

[5] = target: the molecule itself; assay: crystal structure

In the case of `Nc1ncnc2c1ncn2[C@@H]1O[C@H](COP(=O)(O)OP(=O)(O)NP(=O)(O)O)[C@@H](O)[C@H]1O` [AMP-PNP], the “X-ray crystallography, 2.4 Å” value [1] is reported as “crystal structure of AcbK bound to acarbose and a non-hydrolysable ATP analogue, adenylyl-imidodiphosphate (AMP-PNP)”.

`Nc1ncnc2c1ncn2[C@@H]1O[C@H](COP(=O)(O)OP(=O)(O)OP(=O)(O)O)[C@@H](O)[C@H]1O` [ATP] was tested, and the “HPLC-MS of acarbose phosphorylation” value [2] was “we incubated the resulting proteins with ATP and acarbose”.

`CC1OC[C@H]2O[C@H](O[C@H]3[C@H](O)[C@@H](O)[C@@H](O[C@H]4[C@H](O)[C@@H](O)[C@@H](O[C@H]5[C@H](O)[C@@H](O)[C@@H](O[C@H]6[C@H](O)[C@@H](O)[C@@H](O[C@H]7[C@H](O)[C@@H](O)[C@@H](O[C@H]8[C@H](O)[C@@H](O)[C@@H](Oc9ccc([N+](=O)[O-])cc9)O[C@@H]8CO)O[C@@H]7CO)O[C@@H]6CO)O[C@@H]5CO)O[C@@H]4CO)O[C@@H]3CO)[C@H](O)[C@@H](O)[C@@H]2O1` (stereo partly drawn) [ethylidene-pNP-G7] was tested, and the “colorimetric amylase assay, 405 nm” value [3] was “cleavage of an oligosaccharide substrate mimic (ethylidene-pNP-G7)” and the “colorimetric amylase assay, 405 nm” value [4] was “cleavage of an oligosaccharide substrate mimic (ethylidene-pNP-G7)”.

B1: Mak1 (microbiome-derived acarbose kinase 1) (enzyme)
chain: MTQADVLVVGGVGVDHIVRVKSLPLPVVDSMMVPPIVTVVGHTGNGVALGVHALGRASAMADVIGDDAEGRLIQDAYSAAGIPITFVTHISGTRRSVNLVTEEGQRMSLYDPRHPFEFIPDPSLWREGIERSRHVHVSIMNWARYALRDAVAAGRSTSTDLHDWDGVADYHKDFAYGADYVFVSAAALRDESGVVADVFARGRAQFVVVMAGSEGARVWRRSDELPLRISPISIPGRPVVDSNGAGDSFVAAFLCHYLDHGDIFGAARAGAVGGAWACGTLGTHTSFVDVETLERLLAR
With B1 the “stoichiometry N” value [5] was 2.

B2: AcbK (acarbose kinase of Actinoplanes sp. SE50/110) (enzyme, UniProt Q8RMD4 1-299, looked up)
chain: MSEHTDVLVLGGAGVDTIAYVPELPLPFQDSYVVAAIEPRAGQTGDNVALGLHTLGLRTMHVDVLGDDPEGDLVRAFHTRHGLPFAALPTAAGTKRAVNLVGPDGRRLSLWDGSREAEEDRYPAALIAAHTAHARHVHVCITPPGQHVFGQLNDLPVTVSTDLHNWDGAYEGFEVYAFNADLVFLSATALTDVAATMRRVIDRGRARLVVATDGAHGGSVLVRGETEVRRYAAVAPEAPVVDSNGAGDAFVSGFLFGHLAGEPLETCLRYGAIAGAYACTIPATRAGAIDRAALLRPAA
For B2, the “stoichiometry N” value [5] was 2.
